Consider one molecule from US20080300298A1, “Honokiol Derivates For the Treatment of Proliferative Disorders” (priority 2005, published 2008).

For experiment [1], the system named is MCF-7 cells. The experiment can be described thus: Cell cycle assay (PI). It is filed as cell-based. Particulars: 24 hours (control 26%). As to the method: (§1) Cell cycle assays: 5×10^6 cells were cultured in the appropriate culture media containing 10% FCS, and treated with either control vehicle or various concentrations of HNK as indicated for 24 h. Following treatment, the cells were harvested, fixed in methanol and stained with propidium iodide (PI, Abcam, Cambridge, Mass.). Flow cytometry was performed at the Flow Cytometry Core facility of Cedars-Sinai Medical Center, using FACScan (Becton Dickinson, Franklin Lakes, N.J.).
(§2) HNK slows cell cycle in breast cancer cell lines. The effects of HNK (10 μM or 30 μM HNK for 24 hours) on cell cycle were evaluated in MCF-7 and MDA-MB-231 cells. These doses of HNK are less than the LC50 for both cell lines. […] Expression of proteins involved in G1 cell-cycle regulation (massgue) was examined in MDA-MB-231 cells using Western analysis.

Experiment [2] has as its system MDA-MB-231 cells. Kind of experiment: Cell cycle assay (PI). It is filed as cell-based. Particulars: 24 hours (control 26%). Here is the method:
as §1, §2

The subject of experiment [3] is tumor cells isolated from patients with relapsed refractory MM. Kind of experiment: cytotoxicity against patient MM cells (CD38high, flow cytometry). The following applies: 8 ug/ml, 48 h, N=6, mean ±SD. It counts as cell-based, human. As to the method:
Assessment of HNK-induced cytotoxicity against patient MM cells: Cytotoxicity of HNK against fresh MM cells was determined as previously determined, see, for example, Mitsiades et al Cancer Cell. 2004; 5:221-230. Fresh MNCs separated from bone marrow samples derived from patients with MM were incubated with PE-conjugated anti-CD138 antibody and/or FITC-conjugated anti-CD38 antibody (BD Biosciences, San Diego, Calif.) for 30 minutes on ice and washed, followed by analysis using EPICS XL flow cytometer (Beckman Coulter, Hialeah, Fla.). A CD38^high fraction enriched for MM cells was determined in side and forward scatter panel in each case. The expression of CD138 on gated cells was also evaluated. After HNK-treatment for 48 h, cells were harvested and percentage of CD38^high cells with or without HNK-treatment was evaluated. […] Cells were stained with propidium iodide (PI; 50 μg/mL; Sigma, St Louis, Mo.), and cell cycle profile was determined by using the program M software on an EPICS XL flow cytometer (Beckman Coulter, Hialeah, Fla.). […] Fluorescence intensity of TUNEL and APO 2.7 staining was determined using on EPICS XL flow cytometer. Cytotoxicity was determined by trypan blue exclusion assay. […] Cell growth and induction of apoptosis were determined both by colorimetric assay and now cytometric detection of APO2.7 after 48 h treatment. […] DNA synthesis was measured by [^3H]-thymidine uptake. […]
On the technique in general: Flow cytometry measures light scatter and fluorescence of single cells or particles in a stream.

The test system of experiment [4] is NFkB in M12.4.1 cells. The experiment can be described thus: NFkB activation (luciferase assay). It is filed as cell-based, Mouse. The following applies: M12.4.1 cells transfected with hCD40-LMP1; not necessarily to baseline. Here is the method: Mouse M12.4.1 cells (1.5×107), stably transfected with hCD40-LMP1 chimeric molecule were transiently transfected with […] 4×NFkB luciferase reporter plasmid and […] Renilla luciferase vector (pRL-null; Promega, Madison, Wis.) by electroporation. Cells (2×10^6 cells/ml) were rested on ice for 15 minutes, treated with medium alone (BCM), 10 mg/ml anti-TNF-a (MP6-XT3; MP6-XT22), or […] Honokiol for 30 minutes, then incubated an additional 6 hours in the presence of BCM, 10 mg/ml anti-(m)ouse or anti-(h)uman CD40 or isotype controls. After stimulation, cells were pelleted, lysed, and assayed for relative luciferase activity (NFkB: Renilla) per manufacturer's protocol (Promega) using a Turner Designs 20/20 luminometer, with settings of 2 second delay followed by 10 second read. (Note: anti-mCD40 reacts with endougenous CD40 and anti-hCD40 reacts with transfected hCD40-LMP1).

In the case of `C=CCc1ccc(O)c(-c2ccc(O)c(CC=C)c2)c1` [HNK, Honokiol], the “cells in S-phase” value in experiment [1] (MCF-7, 10 μM) worked out at 20%; in experiment [1] (MCF-7, 30 μM), 20%; in experiment [2] (MDA-MB-231, 10 μM) it was 15%; in experiment [2] (MDA-MB-231, 30 μM) it was 10%. Moreover, the “percentage of CD38high cells compared to control cultures” value in experiment [3] is given as 26.2±15.8%. The “NFkB activation (luciferase assay)” value in experiment [4] is on record as “inhibited by honokiol in a dose dependent manner”.
